# Data reported in patent US10030047B2 (Hoffmann-La Roche Inc., priority 2015, dated 2018).
# Tested on: A. baumannii strain ATCC19606
# Assay: Minimum inhibitory concentration (MIC) determination, microbroth dilution (CLSI)
# Format: cell-based
# Details: Acinetobacter baumannii; A. baumannii ATCC19606; CAMHB; read after 20 hours; >=80% growth inhibition; read-out: ATCC19606 MIC
# How it was run: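 After 20 h at 35±2 °C, MIC taken visually and by OD 600 nm as the lowest concentration giving ≥80% growth inhibition. Bacteria (~5×10^5 CFU/ml) were tested per CLSI microbroth dilution against twofold serial compound dilutions in cation-adjusted Mueller Hinton broth.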
row,Structure (SMILES),MIC [µg/mL]
1,"CN1C(=O)[C@H](CCCCN)NC(=O)[C@H](CCCN)NCc2cccnc2Sc2c(Cl)cc(-c3ccc(N)nc3)cc2CNC(=O)[C@@H]1Cc1c[nH]c2ccccc12 [Example 109, (11S,14S,17S)-14-(4-Amino-butyl)-11-(3-amino-propyl)-23-(6-amino-pyridin-3-yl)-25-chloro-17-(1H-indol-3-ylmethyl)-16-methyl-2-thia-4,10,13,16,19-pentaaza-tricyclo[19.4.0.0*3,8*]pentacosa-1(25),3(8),4,6,21,23-hexaene-12,15,18-trione]",2
2,"CN1C(=O)[C@H](CCCCN)NC(=O)[C@H](CCCN)NCc2nccnc2Sc2c(Cl)ccc(Cl)c2CNC(=O)[C@@H]1Cc1c[nH]c2ccccc12 [Example 110, (11S,14S,17S)-14-(4-Amino-butyl)-11-(3-amino-propyl)-22,25-dichloro-17-(1H-indol-3-ylmethyl)-16-methyl-2-thia-4,7,10,13,16,19-hexaaza-tricyclo[19.4.0.0*3,8*]pentacosa-1(25),3,5,7,21,23-hexaene-12,15,18-trione]",0.5
3,"CN1C(=O)[C@H](CCCCN)NC(=O)[C@H](CCCN)NCc2ncccc2Sc2c(Cl)ccc(C(F)(F)F)c2CNC(=O)[C@@H]1Cc1c[nH]c2ccccc12 [Example 111, (11S,14S,17S)-14-(4-Amino-butyl)-11-(3-amino-propyl)-25-chloro-17-(1H-indol-3-ylmethyl)-16-methyl-22-trifluoromethyl-2-thia-7,10,13,16,19-pentaaza-tricyclo[19.4.0.0*3,8*]pentacosa-1(25),3(8),4,6,21,23-hexaene-12,15,18-trione]",1
4,"CN1C(=O)[C@H](CCCCN)NC(=O)[C@H](CCCN)NCc2ncccc2Sc2c(Cl)cc(C(F)(F)F)cc2CNC(=O)[C@@H]1Cc1c[nH]c2ccccc12 [Example 112, (11S,14S,17S)-14-(4-Amino-butyl)-11-(3-amino-propyl)-25-chloro-17-(1H-indol-3-ylmethyl)-16-methyl-23-trifluoromethyl-2-thia-7,10,13,16,19-pentaaza-tricyclo[19.4.0.0*3,8*]pentacosa-1(25),3,5,7,21,23-hexaene-12,15,18-trione]",0.5
5,"CN1C(=O)[C@H](CCCCN)NC(=O)[C@H](CCCN)NCc2ccccc2Sc2c(ccnc2Cl)CNC(=O)[C@@H]1Cc1c[nH]c2ccccc12 [Example 113, (12S,15S,18S)-15-(4-Amino-butyl)-18-(3-amino-propyl)-4-chloro-12-(1H-indol-3-ylmethyl)-13-methyl-2-thia-5,10,13,16,19-pentaaza-tricyclo[19.4.0.0*3,8*]pentacosa-1(25),3,5,7,21,23-hexaene-11,14,17-trione]",2
6,"CN1C(=O)[C@H](CCCCN)NC(=O)[C@H](Cc2cccc3ccccc23)NCc2cccnc2Sc2c(Cl)cc(Cl)cc2CNC(=O)[C@@H]1Cc1c[nH]c2ccccc12 [Example 114, (11S,14S,17S)-14-(4-Amino-butyl)-23,25-dichloro-17-(1H-indol-3-ylmethyl)-16-methyl-11-naphthalen-1-ylmethyl-2-2-thia-4,10,13,16,19-pentaaza-tricyclo[19.4.0.0*3,8*]pentacosa-1(25),3,5,7,21,23-hexaene-12,15,18-trione]",32
7,"CN1CCN(c2cc(-c3cc(Cl)c4c(c3)CNC(=O)[C@H](Cc3c[nH]c5ccccc35)N(C)C(=O)[C@H](CCCCN)NC(=O)[C@H](CCCN)NCc3cccnc3S4)ccn2)CC1 [Example 115, (11S,14S,17S)-14-(4-Amino-butyl)-11-(3-amino-propyl)-25-chloro-17-(1H-indol-3-ylmethyl)-16-methyl-23-[2-(4-methyl-piperazin-1-yl)-pyridin-4-yl]-2-thia-4,10,13,16,19-pentaaza-tricyclo[19.4.0.0*3,8*]pentacosa-1(25),3,5,7,21,23-hexaene-12,15,18-trione]",2
8,"CN1C(=O)[C@H](CCCCN)NC(=O)[C@H](CCCN)NCc2cccnc2Sc2c(Cl)cc(B(O)O)cc2CNC(=O)[C@@H]1Cc1c[nH]c2ccccc12 [Example 116, {(7S,10S,13S)-10-(4-aminobutyl)-7-(3-aminopropyl)-20-chloro-13-[(1H-indol-3-yl)methyl]-12-methyl-8,11,14-trioxo-5,6,7,8,9,10,11,12,13,14,15,16-dodecahydropyrido[2,3-b][1,5,8,11,14]benzothiatetraazacycloheptadecin-18-yl}boronic acid]",8
9,"CN1C(=O)[C@H](CCCCN)NC(=O)[C@H](COCCN)NCc2cccnc2Sc2c(Cl)ccc(C(F)(F)F)c2CNC(=O)[C@@H]1Cc1c[nH]c2ccccc12 [Example 118, (11S,14S,17S)-14-(4-Amino-butyl)-11-(2-amino-ethoxymethyl)-25-chloro-17-(1H-indol-3-ylmethyl)-16-methyl-22-trifluoromethyl-2-thia-4,10,13,16,19-pentaaza-tricyclo[19.4.0.0*3,8*]pentacosa-1(25),3,5,7,21,23-hexaene-12,15,18-trione]",0.5
10,"CN1C(=O)[C@H](COCCN)NC(=O)[C@H](COCCN)NCc2cccnc2Sc2c(Cl)ccc(C(F)(F)F)c2CNC(=O)[C@@H]1Cc1c[nH]c2ccccc12 [Example 119, (11S,14S,17S)-11,14-Bis-(2-amino-ethoxymethyl)-25-chloro-17-(1H-indol-3-ylmethyl)-16-methyl-22-trifluoromethyl-2-thia-4,10,13,16,19-pentaaza-tricyclo[19.4.0.0*3,8*]pentacosa-1(25),3,5,7,21,23-hexaene-12,15,18-trione]",4
11,"CN1C(=O)[C@H](COCCN)NC(=O)[C@H](CCCN)NCc2cccnc2Sc2c(Cl)ccc(C(F)(F)F)c2CNC(=O)[C@@H]1Cc1c[nH]c2ccccc12 [Example 120, (11S,14S,17S)-14-(2-Amino-ethoxymethyl)-11-(3-amino-propyl)-25-chloro-17-(1H-indol-3-ylmethyl)-16-methyl-22-trifluoromethyl-2-thia-4,10,13,16,19-pentaaza-tricyclo[19.4.0.0*3,8*]pentacosa-1(25),3,5,7,21,23-hexaene-12,15,18-trione]",0.5
12,"CN1C(=O)[C@H](CCCCN)NC(=O)[C@H](CCC(N)=O)NCc2cccnc2Sc2c(Cl)ccc(Cl)c2CNC(=O)[C@@H]1Cc1c[nH]c2ccccc12 [Example 121, 3-[(11S,14S,17S)-14-(4-Amino-butyl)-22,25-dichloro-17-(1H-indol-3-ylmethyl)-16-methyl-12,15,18-trioxo-2-thia-4,10,13,16,19-pentaaza-tricyclo[19.4.0.0*3,8*]pentacosa-1(25),3,5,7,21,23-hexaen-11-yl]-propionamide]",2
13,"CN1C(=O)[C@H](CCCCN)NC(=O)[C@H](CCCN)NCc2ccncc2Sc2c(Cl)ccc(C(F)(F)F)c2CNC(=O)[C@@H]1Cc1c[nH]c2ccccc12 [Example 122, (11S,14S,17S)-14-(4-Amino-butyl)-11-(3-amino-propyl)-25-chloro-17-(1H-indol-3-ylmethyl)-16-methyl-22-trifluoromethyl-2-thia-5,10,13,16,19-pentaaza-tricyclo[19.4.0.0*3,8*]pentacosa-1(25),3,5,7,21,23-hexaene-12,15,18-trione]",1
14,"CN1C(=O)[C@H](CCCCN)NC(=O)[C@H](CCCN)NCc2ccncc2Sc2c(Cl)cc(C(F)(F)F)cc2CNC(=O)[C@@H]1Cc1c[nH]c2ccccc12 [Example 123, (11S,14S,17S)-14-(4-Amino-butyl)-11-(3-amino-propyl)-25-chloro-17-(1H-indol-3-ylmethyl)-16-methyl-23-trifluoromethyl-2-thia-5,10,13,16,19-pentaaza-tricyclo[19.4.0.0*3,8*]pentacosa-1(25),3,5,7,21,23-hexaene-12,15,18-trione]",1
15,"CN1C(=O)[C@H](CCCCN)NC(=O)[C@H](CC(N)=O)NCc2cccnc2Sc2c(Cl)cc(Cl)cc2CNC(=O)[C@@H]1Cc1c[nH]c2ccccc12 [Example 127, 2-[(11S,14S,17S)-14-(4-Amino-butyl)-23,25-dichloro-17-(1H-indol-3-ylmethyl)-16-methyl-12,15,18-trioxo-2-thia-4,10,13,16,19-pentaaza-tricyclo[19.4.0.0*3,8*]pentacosa-1(25),3(8),4,6,21,23-hexaen-11-yl]-acetamide]",16
16,"CN1C(=O)[C@H](CCCCN)NC(=O)[C@H](CCCN)NCc2ccccc2Sc2c(cc(-c3ccccc3)cc2C(F)(F)F)CNC(=O)[C@@H]1Cc1c[nH]c2ccccc12 [Example 128, (12S,15,18S)-15-(4-Amino-butyl))-18-(3-amino-propyl)-12-(1H-indo-3-ylmethyl)-13-methyl-6-phenyl-4-trifluoromethyl-2-thia-10,13,16,19-tetraaza-tricyclo[19.4.0.0*3,8*]pentacosa-1(25),3,5,7,21,23-hexaene-11,14,17-trione]",2
17,"CN1C(=O)[C@H](CCCCN)NC(=O)[C@H](CCCN)NCc2cccnc2Sc2c(Cl)ccc(-c3ccccc3)c2CNC(=O)[C@@H]1Cc1c[nH]c2ccccc12 [Example 129, (11S,14S,17S)-14-(4-Amino-butyl)-11-(3-amino-propyl)-25-chloro-17-(1H-indol-3-ylmethyl)-16-methyl-22-phenyl-2-thia-4,10,13,16,19-pentaaza-tricyclo[19.4.0.0*3,8*]pentacosa-1(25),3(8),4,6,21,23-hexaene-12,15,18-trione]",0.25
18,"CN1C(=O)[C@H](CCCCN)NC(=O)[C@H](CCCN)NCc2cccnc2Sc2c(Cl)cc(N3CCCC3)cc2CNC(=O)[C@@H]1Cc1c[nH]c2ccccc12 [Example 130, (11S,14S,17S)-14-(4-Amino-butyl)-11-(3-amino-propyl)-25-chloro-17-(1H-indol-3-ylmethyl)-16-methyl-23-pyrrolidin-1-yl-2-thia-4,10,13,16,19-pentaaza-tricyclo[19.4.0.0*3,8*]pentacosa-1(25),3(8),4,6,21,23-hexaene-12,15,18-trione]",1
